Patent publication US7855292B2, “Sulfonamide compounds” (Janssen Pharmaceutica NV, priority 2004, dated 2010)

Assays:
CCK-1 receptor = target: T1, CCK-1 receptor (Homo sapiens, UniProt P32238); assay: CCK1 binding assay ([125I]-BH-CCK-8S displacement, CHO-K1 membranes); conditions: membranes of CHO-K1 cells stably transfected with the CCK-1 receptor, 20 pM [125I]-BH-CCK-8S, 0.3 μM PD-134,308 present, 60 min at 21±3° C.; for Ki: read-out: CCK1 pKi (converted)
T1 construct: expressed in transfected cells; host or cells: CHO-K1
T1 sequence (P32238 1-428): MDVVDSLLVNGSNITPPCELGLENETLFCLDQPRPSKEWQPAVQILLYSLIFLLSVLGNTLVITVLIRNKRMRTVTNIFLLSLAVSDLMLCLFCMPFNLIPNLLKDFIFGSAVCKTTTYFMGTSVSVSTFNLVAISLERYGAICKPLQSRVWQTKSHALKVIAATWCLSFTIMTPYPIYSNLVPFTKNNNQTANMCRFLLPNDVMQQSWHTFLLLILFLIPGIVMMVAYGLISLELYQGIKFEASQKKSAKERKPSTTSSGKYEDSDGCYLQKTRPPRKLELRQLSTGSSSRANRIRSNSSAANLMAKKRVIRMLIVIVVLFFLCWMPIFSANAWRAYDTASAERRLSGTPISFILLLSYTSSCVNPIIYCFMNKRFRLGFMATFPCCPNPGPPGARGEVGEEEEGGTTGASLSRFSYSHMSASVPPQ
Method in brief: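 Membranes from CHO-K1 cells stably expressing CCK-1 incubated 1 h at 21±3° C with 20 pM [125I]-BH-CCK-8S in HEPES buffer pH 7.2 containing 0.3 μM PD-134,308 to block CCK-2. Bound radioactivity read by gamma counting after filtration. pKi derived via Cheng-Prusoff, with specific binding defined using 2-NAP.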

CCK2 receptor = target: T2, CCK2 receptor (Homo sapiens, UniProt P32239); assay: CCK2 binding assay ([125I]-BH-CCK-8S displacement, HEKZFP membranes); conditions: membranes of doxycycline-induced HEKZFP cells, 20 pM [125I]-BH-CCK-8S, 60 min at 21±3° C.; for Ki: read-out: CCK2 pKi (converted)
T2 construct: analyzed for ZFP expression as well as CCK2R induction upon addition of doxycycline to the culture medium; endogenous in cells
T2 sequence (P32239 1-447): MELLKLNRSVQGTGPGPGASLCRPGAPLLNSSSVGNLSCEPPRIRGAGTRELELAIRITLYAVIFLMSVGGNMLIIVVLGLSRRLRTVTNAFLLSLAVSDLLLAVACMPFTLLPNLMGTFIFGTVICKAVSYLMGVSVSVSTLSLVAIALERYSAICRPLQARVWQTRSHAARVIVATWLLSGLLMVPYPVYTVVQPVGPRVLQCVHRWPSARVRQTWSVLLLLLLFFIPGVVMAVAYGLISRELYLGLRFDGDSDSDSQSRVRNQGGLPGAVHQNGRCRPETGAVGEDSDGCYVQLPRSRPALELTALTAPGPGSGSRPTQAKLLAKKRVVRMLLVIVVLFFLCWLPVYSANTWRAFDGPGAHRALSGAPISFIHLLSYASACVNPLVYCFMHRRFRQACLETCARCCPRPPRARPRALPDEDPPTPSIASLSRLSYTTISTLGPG

Question: How did the Ki (CCK-1 receptor) turn out when `CC(Cc1ccc(Cl)cc1)NC(=O)c1ccc(C(F)(F)F)cc1NS(=O)(=O)c1cccc2nsnc12` (stereo not drawn) [Example 22, 2-(Benzo[1,2,5]thiadiazole-4-sulfonylamino)-N-[2-(4-chloro-phenyl)-1-methyl-ethyl]-4-trifluoromethyl-benzamide] was run?
Answer: 501 nM

Question: What about the Ki (CCK2 receptor) of the same compound?
Answer: 631 nM

Question: `C[C@@H](CNC(=O)c1ccc(Br)cc1NS(=O)(=O)c1c(F)cccc1F)c1ccccc1` [Example 38, (R)-4-Bromo-2-(2,6-difluoro-benzenesulfonylamino)-N-(2-phenyl-propyl)-benzamide] was tested. Which Ki (CCK-1 receptor) did it give?
Answer: 316 nM

Question: What about the Ki (CCK2 receptor) of the same compound?
Answer: 2000 nM

Question: For `O=C(O)/C(=C/c1ccc(Cl)c(Cl)c1)NC(=O)c1cc(Cl)c(Cl)cc1NS(=O)(=O)c1cccc2nsnc12` [Example 144, (Z)-2-[2-(Benzo[1,2,5]thiadiazole-4-sulfonylamino)-4,5-dichloro-benzoylamino]-3-(3,4-dichloro-phenyl)-acrylic acid], which Ki (CCK-1 receptor) is on record?
Answer: 501 nM

Question: What about the Ki (CCK2 receptor) of the same compound?
Answer: 50.1 nM

Question: With `NC(=O)[C@H](Cc1ccc(Cl)cc1)NC(=O)c1cc(Cl)c(Cl)cc1NS(=O)(=O)c1cccc2nsnc12` [Example 11, (S)-2-(Benzo[1,2,5]thiadiazole-4-sulfonylamino)-N-[1-carbamoyl-2-(4-chloro-phenyl)-ethyl]-4,5-dichloro-benzamide] as the compound, how does the Ki (CCK-1 receptor) read?
Answer: 398 nM

Question: And the Ki (CCK2 receptor)?
Answer: 316 nM

Question: Which Ki (CCK-1 receptor) does the source give for `CC(C)(c1ccc(Cl)cc1)[C@H](NC(=O)c1ccc(I)cc1NS(=O)(=O)c1cccc2nsnc12)C(=O)O` [Example 95, (S)-2-[2-(Benzo[1,2,5]thiadiazole-4-sulfonylamino)-4-iodo-benzoylamino]-3-(4-chloro-phenyl)-3-methyl-butyric acid] here?
Answer: 3160 nM

Question: And the Ki (CCK2 receptor)?
Answer: 794 nM

Question: How did the Ki (CCK-1 receptor) turn out when `CC(CNC(=O)c1c(Cl)cccc1NS(=O)(=O)c1cccc2nsnc12)c1ccc(Cl)c(Cl)c1` (stereo not drawn) [Example 81, 2-(Benzo[1,2,5]thiadiazole-4-sulfonylamino)-6-chloro-N-[2-(3,4-dichloro-phenyl)-propyl]-benzamide] was run?
Answer: 794 nM

Question: And the Ki (CCK2 receptor)?
Answer: 2000 nM

Question: Which Ki (CCK-1 receptor) does the source give for `O=C(NC1Cc2ccccc2C1)c1ccc(Cl)cc1NS(=O)(=O)c1cccc2nsnc12` [Example 50, 2-(Benzo[1,2,5]thiadiazole-4-sulfonylamino)-4-chloro-N-indan-2-yl-benzamide] here?
Answer: 631 nM

Question: And the Ki (CCK2 receptor)?
Answer: 6310 nM

Question: Which results are given for `C[C@@H](NC(=O)c1ccc(Cl)cc1NS(=O)(=O)c1cccc2nsnc12)[C@@H](O)c1ccccc1` [Example 49, 2-(Benzo[1,2,5]thiadiazole-4-sulfonylamino)-4-chloro-N-((2S,1R)-2-hydroxy-1-methyl-2-phenyl-ethyl)-benzamide]?
Answer: Ki (CCK-1 receptor): 200 nM; Ki (CCK2 receptor): 2000 nM

Question: With `COC(=O)[C@H](Cc1ccc(F)c(Br)c1)NC(=O)c1ccc(I)cc1NS(=O)(=O)c1cccc2nsnc12` [Example 123, (S)-2-[2-(Benzo[1,2,5]thiadiazole-4-sulfonylamino)-4-iodo-benzoylamino]-3-(3-bromo-4-fluoro-phenyl)-propionic acid methyl ester] as the compound, how does the Ki (CCK-1 receptor) read?
Answer: 100 nM

Question: What about the Ki (CCK2 receptor) of the same compound?
Answer: 158 nM

Question: `O=C(N[C@@H](Cc1ccc(F)c(Br)c1)C(=O)O)c1cc(Cl)c(Cl)cc1NS(=O)(=O)c1cccc2nccnc12` [Example 160, (S)-3-(3-Bromo-4-fluoro-phenyl)-2-[4,5-dichloro-2-(quinoxaline-5-sulfonylamino)-benzoylamino]-propionic acid] was tested. Which “CCK1 pKi” value (CCK-1 receptor) did it give?
Answer: 6.8

Question: What about the “CCK2 pKi” value (CCK2 receptor) of the same compound?
Answer: 8.2

Question: Which Ki (CCK-1 receptor) does the source give for `O=C(N[C@@H](Cc1ccc(Cl)cc1)C(=O)O)c1ccc(I)cc1NS(=O)(=O)c1cccc2nccnc12` [Example 90, (S)-3-(4-Chloro-phenyl)-2-[4-iodo-2-(quinoxaline-5-sulfonylamino)-benzoylamino]-propionic acid] here?
Answer: 1260 nM

Question: What about the Ki (CCK2 receptor) of the same compound?
Answer: 31.6 nM

Question: How did the Ki (CCK-1 receptor) turn out when `O=C(N[C@@H](Cc1ccc(Cl)c(Cl)c1)C(=O)O)c1cc(Cl)c(Cl)cc1NS(=O)(=O)c1cccc2nsnc12` [Example 141, (S)-2-[2-(Benzo[1,2,5]thiadiazole-4-sulfonylamino)-4,5-dichloro-benzoylamino]-3-(3,4-dichloro-phenyl)-propionic acid] was run?
Answer: 100 nM

Question: And the Ki (CCK2 receptor)?
Answer: 63.1 nM

Question: How did the Ki (CCK-1 receptor) turn out when `COC(=O)[C@H](Cc1ccc(F)c(Br)c1)NC(=O)c1ccc(I)cc1NS(=O)(=O)c1cccc2nccnc12` [Example 124, (S)-3-(3-Bromo-4-fluoro-phenyl)-2-[4-iodo-2-(quinoxaline-5-sulfonylamino)-benzoylamino]-propionic acid methyl ester] was run?
Answer: 316 nM

Question: What about the Ki (CCK2 receptor) of the same compound?
Answer: 50.1 nM

Question: With `O=C(N[C@@H](Cc1ccc(Cl)c(Br)c1)C(=O)O)c1ccc(Br)cc1NS(=O)(=O)c1cccc2nccnc12` [Example 155, (S)-3-(3-Bromo-4-chloro-phenyl)-2-[4-bromo-2-(quinoxaline-5-sulfonylamino)-benzoylamino]-propionic acid] as the compound, how does the “CCK1 pKi” value (CCK-1 receptor) read?
Answer: 7.0

Question: What about the “CCK2 pKi” value (CCK2 receptor) of the same compound?
Answer: 8.0

Question: `CC(CNC(=O)c1ccc(I)cc1NS(=O)(=O)c1c(F)cccc1F)c1ccc(Cl)cc1Cl` (stereo not drawn) [Example 47, N-[2-(2,4-Dichloro-phenyl)-propyl]-2-(2,6-difluoro-benzenesulfonylamino)-4-iodo-benzamide] was tested. Which Ki (CCK-1 receptor) did it give?
Answer: 100 nM

Question: And the Ki (CCK2 receptor)?
Answer: 5010 nM

Question: Which results are given for `O=C(N[C@@H](Cc1ccc(Cl)c(Cl)c1)C(=O)NCc1ccccc1)c1ccc(Cl)cc1NS(=O)(=O)c1cccc2nsnc12` [Example 129, (S)-2-(Benzo[1,2,5]thiadiazole-4-sulfonylamino)-N-[1-benzylcarbamoyl-2-(3,4-dichloro-phenyl)-ethyl]-4-chloro-benzamide]?
Answer: Ki (CCK-1 receptor): 100 nM; Ki (CCK2 receptor): 631 nM

Question: Which Ki (CCK-1 receptor) does the source give for `CC(CNC(=O)c1ccc(I)cc1NS(=O)(=O)c1c(F)cccc1F)c1ccc([N+](=O)[O-])cc1` (stereo not drawn) [Example 48, 2-(2,6-Difluoro-benzenesulfonylamino)-4-iodo-N-[2-(4-nitro-phenyl)-propyl]-benzamide] here?
Answer: 50.1 nM

Question: What about the Ki (CCK2 receptor) of the same compound?
Answer: 2000 nM

Question: For `C[C@@H](CNC(=O)c1ccc(Br)cc1NS(=O)(=O)c1cccc2nsnc12)c1ccccc1` [Example 36, (R)-2-(Benzo[1,2,5]thiadiazole-4-sulfonylamino)-4-bromo-N-(2-phenyl-propyl)-benzamide], which “CCK1 pKi” value (CCK-1 receptor) is on record?
Answer: 7.1

Question: What about the “CCK2 pKi” value (CCK2 receptor) of the same compound?
Answer: 5.8

Question: For `O=C(N[C@@H](Cc1ccc(F)c(Br)c1)C(=O)O)c1ccc(I)cc1NS(=O)(=O)c1cccc2nsnc12` [Example 93, (S)-2-[2-(Benzo[1,2,5]thiadiazole-4-sulfonylamino)-4-iodo-benzoylamino]-3-(3-bromo-4-fluoro-phenyl)-propionic acid], which “CCK1 pKi” value (CCK-1 receptor) is on record?
Answer: 6.8

Question: And the “CCK2 pKi” value (CCK2 receptor)?
Answer: 8.3

Question: Which Ki (CCK-1 receptor) does the source give for `CC(CNC(=O)c1ccc(I)cc1NS(=O)(=O)c1cccc2nccnc12)c1ccc(Cl)c(Cl)c1` (stereo not drawn) [Example 40, N-[2-(3,4-Dichloro-phenyl)-propyl]-4-iodo-2-(quinoxaline-5-sulfonylamino)-benzamide] here?
Answer: 126 nM

Question: And the Ki (CCK2 receptor)?
Answer: 316 nM

Question: For `COC(=O)[C@H](Cc1ccc(Cl)cc1)NC(=O)c1ccc(Cl)cc1NS(=O)(=O)c1ccc(F)cc1F` [Example 71, (S)-2-[4-Chloro-2-(2,4-difluoro-benzenesulfonylamino)-benzoylamino]-3-(4-chloro-phenyl)-propionic acid methyl ester], which Ki (CCK-1 receptor) is on record?
Answer: 126 nM

Question: What about the Ki (CCK2 receptor) of the same compound?
Answer: 2510 nM

Question: With `Cc1ccc(C(=O)NC(CO)Cc2ccc(Cl)cc2)c(NS(=O)(=O)c2cccc3nsnc23)c1` (racemic) [Example 12, (±)-2-(Benzo[1,2,5]thiadiazole-4-sulfonylamino)-N-[2-(4-chloro-phenyl)-1-hydroxymethyl-ethyl]-4-methyl-benzamide] as the compound, how does the Ki (CCK-1 receptor) read?
Answer: 1260 nM

Question: What about the Ki (CCK2 receptor) of the same compound?
Answer: 63.1 nM

Question: How did the Ki (CCK-1 receptor) turn out when `CC(CNC(=O)c1ccc(Cl)cc1NS(=O)(=O)c1cccc2nsnc12)c1ccc(Cl)cc1` (racemic) [Example 1, (±)-2-(Benzo[1,2,5]thiadiazole-4-sulfonylamino)-4-chloro-N-[2-(4-chloro-phenyl)-propyl]-benzamide] was run?
Answer: 126 nM

Question: And the Ki (CCK2 receptor)?
Answer: 398 nM

Question: With `O=C(N[C@@H](Cc1ccc(Cl)c(Cl)c1)C(=O)O)c1ccc(Br)cc1NS(=O)(=O)c1cccc2nsnc12` [Example 131, (S)-2-[2-(Benzo[1,2,5]thiadiazole-4-sulfonylamino)-4-bromo-benzoylamino]-3-(3,4-dichloro-phenyl)-propionic acid] as the compound, how does the Ki (CCK-1 receptor) read?
Answer: 158 nM

Question: And the Ki (CCK2 receptor)?
Answer: 15.8 nM
